Where a name gives a salt, the structure may show the parent alone.
Columns and labels:
[1] = test system: late components of human complement (C3-C9); assay: Test Code 035 (C3-C9 inhibitor); type: biochemical; conditions: serial two fold dilution assay; higher well number indicates higher activity; protection of EAC 142 from lysis
Experimental: (§1) An active inhibitor protects C2 from C1 and C4; (ii) Test Code 035 (C3-C9 inhibitor)-This test determines the ability of the late components of human complement (C3-C9) to lyse EAC 142 in the presence of appropriate dilutions of the test compound. An active inhibitor protects EAC 142 from lysis by human C3-C9; and (iii) Cap 50 Test-Here, appropriate amounts of the test compound are added to a pool of guinea pig serum in vitro, after which the undiluted serum capillary tube assay of U.S. Pat. No. 3,876,376 is run. The concentration of compound inhibiting 50% is reported.

activated human C1 = assay: Test Code 026 (C1 inhibitor); type: biochemical; conditions: serial two fold dilution assay; higher well number indicates higher activity; protection of human C2 from C1 and C4
Experimental: as §1

Compound | 035 (C3-C9 inhibitor), activity in wells [1] | 026 (C1 inhibitor), activity in wells (activated human C1)
O=C(O)c1cc(OS(=O)(=O)O)c2c(c1)[C@H]([C@H]1c3cccc(O[C@@H]4O[C@H](COS(=O)(=O)O)[C@@H](OS(=O)(=O)O)[C@H](OS(=O)(=O)O)[C@H]4OS(=O)(=O)O)c3C(=O)c3c(OS(=O)(=O)O)cc(C(=O)O)cc31)c1cccc(O[C@@H]3O[C@H](COS(=O)(=O)O)[C@@H](OS(=O)(=O)O)[C@H](OS(=O)(=O)O)[C@H]3OS(=O)(=O)O)c1C2=O (relative stereo) [(R*,S*)-5,5'-Bis-(β-D-glucopyranosyloxy)-9,9',10,10'-tetrahydro-4,4'-dihydroxy-10,10'-dioxo-[9,9'-bianthracene]-2,2'-dicarboxylic acid, decakis (H-sulfate), decasodium salt] | 1 wells | 7 wells
O=C(O)c1cc(OS(=O)(=O)O)c2c(c1)C(C1c3cccc(OC4OC(COS(=O)(=O)O)C(OS(=O)(=O)O)C(OS(=O)(=O)O)C4OS(=O)(=O)O)c3C(=O)c3c(OS(=O)(=O)O)cc(C(=O)O)cc31)c1cccc(OC3OC(COS(=O)(=O)O)C(OS(=O)(=O)O)C(OS(=O)(=O)O)C3OS(=O)(=O)O)c1C2=O [(R*,R*)-5,5'-Bis-(β-D-glucopyranosyloxy)-9,9',10,10'-tetrahydro-4,4'-dihydroxy-10,10'-dioxo-[9,9'-bianthracene]-2,2'-dicarboxylic acid, decakis (H-sulfate), decasodium salt] | 2 wells | 8 wells
